Data set [1] relates to P388 murine lymphocytic leukemia. The data set is described as follows: Cell growth inhibition against P388 murine lymphocytic leukemia (in vitro PS system), NCI standard protocol. It is filed as cell-based. The note with it: Mus musculus, read-out: ED50 (P388 murine lymphocytic leukemia, in vitro PS system).
Excerpt: Hplc-uv/vis and cell growth inhibition against the P388 murine lymphocytic leukemia (in vitro PS system) were used to guide the isolation of the lignan.
The nature of data set [2]: Stability in solution at room temperature (nmr observation; MeOH solutions stored two days). It counts as physicochemical.
Data set [3] is described as follows: Thermal stability in DMSO-d6 (variable temperature 1H nmr). It counts as physicochemical. The note with it: DMSO-d6, higher temperatures (FIGS. 2d,e); signals attributable to justicidin B appeared. On the procedure: Signals of the remaining carbons appeared as sharp single lines. These observations are explained by hindered rotation around the C-1/C-1' axis, resulting in conformational isomers. In order to provide evidence for or disprove this hypotheses, the ^1 H nmr spectra of the glycoside (shown above) were recorded in DMSO-d6 at different temperatures. Table 1 summarizes the chemical shifts observed at 25, 65, 105, 135, and 145° C. […] Room temperature (FIG. 2a) led to a complex coupling pattern that became more easily interpretable when the spectrum was recorded at 65° C. (FIG. 2b). Signals due to H-2', H-5' and H-6' broadened and disappeared when the temperature was raised (FIG. 2c). […] Other protons (not shown in FIG. 2) also appeared as single resonances at higher temperatures.

In brackets after ≈: the same amount, converted by molar mass.

With `COc1cc2cc(COC(C)=O)c(C(=O)O[C@@H]3O[C@H](CO)[C@@H](O)[C@H](O)[C@H]3O)c(-c3ccc4c(c3)OCO4)c2cc1OC` [Phyllanthostatin A], the IC50 in data set [1] was determined as 4 µg/mL (≈ 6.82 µM). For the same compound, in data set [2] (MeOH solutions, room temperature, two days), the “justicidin B detected in stored solution” value was “Justicidin B was also detected in MeOH solutions of glycoside stored at room temperature for two days”. Moreover, in data set [2] (in solution), the stability in solution entry is “unstable in solution”. Also, in data set [3], the “decomposition at higher temperatures” value is on record as “gradually decomposed”.
